Ki data for one compound are collected here from PMC5142369 (Hypertension (Dallas, Tex. : 1979), 2016).

A word on the Ki: it is the dissociation constant of the complex between target and ligand, obtained from inhibition or displacement.

The target in this experiment is T1, aldosterone synthase (CYP11B2) (Homo sapiens, UniProt P19099).
T1 sequence (P19099 25-503): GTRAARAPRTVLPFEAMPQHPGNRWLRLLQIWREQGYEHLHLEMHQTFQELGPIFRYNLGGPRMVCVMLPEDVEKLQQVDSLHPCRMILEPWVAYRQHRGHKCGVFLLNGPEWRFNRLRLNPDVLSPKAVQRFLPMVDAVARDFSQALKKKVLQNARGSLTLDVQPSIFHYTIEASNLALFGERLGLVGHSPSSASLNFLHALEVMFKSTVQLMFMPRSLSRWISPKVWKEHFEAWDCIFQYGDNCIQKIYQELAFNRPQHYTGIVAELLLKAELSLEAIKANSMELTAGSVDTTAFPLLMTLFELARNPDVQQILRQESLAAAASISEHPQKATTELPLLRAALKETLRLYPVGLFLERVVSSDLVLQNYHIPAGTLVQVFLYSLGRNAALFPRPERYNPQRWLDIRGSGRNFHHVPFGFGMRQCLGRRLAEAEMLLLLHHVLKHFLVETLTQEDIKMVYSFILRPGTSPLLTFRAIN
Nature of the experiment: aldosterone production by cells expressing the recombinant enzyme. It counts as cell-based.

Turning to `CCC(=O)N[C@@H]1CCCc2c(-c3ccc4c(c3)CCC(=O)N4C)cncc21` [RO6836191], the Ki came to 13 nM.
